The target of the experiment is T1, Recombinant human CDK9/cyclin T1 (Homo sapiens, UniProt P50750).
T1 construct: purchased Carna bioscience 04-110
The experiment in a line: CDK9 enzyme inhibitory activity (ADP-Glo kinase assay). As to conditions: CDK9 enzyme activity, average of two independent repeats; for inhibition at 0.01 µM: read-out: Inhibition rate at different concentrations (%) 10 nM; for inhibition at 0.1 µM: compound 100 nM, read-out: Inhibition rate at different concentrations (%) 100 nM. The format is biochemical. On the procedure: Experimental method: Recombinant human CDK9/cyclin T1 (Carna bioscience, Cat #04-110) was diluted with dilution buffer (20 mM Tris HCl (pH 7.5), 0.02% Triton X-100, 0.01% BSA, 2 mM DTT, 0.5 mM Na3VO4, 10% Glycerol) to […], the substrates CDK7/9 tide (ThermoFisher, Cat #PV5090) and ATP (sigmaaldrich, Cat #A1852) were diluted with assay buffer (25 mM Tris HCl (pH7.5), 10 mM MgCl2, 0.5 mM EGTA (pH 8), 0.5 mM Na3VO4, 5 mMb-glycerol phosphate, 0.1% Triton X-100, 2.5 mM DTT) to final concentrations of 100 μM and […] respectively, aliquot and set aside. 2 μl of diluted recombinant human CDK9/cyclin T1, 1 μl of test compound, and 2 μl of diluted substrate CDK7/9 tide containing ATP were added to the 384-well plate. […] The positive control was the well in which enzyme and substrate were co-incubated, and the negative control was the well in which dilution buffer and substrate were co-incubated. The inhibition rate was calculated according to the following formula.
On the technique in general: In ADP-Glo the light output rises with the ADP produced.

The structures appear in SMILES notation.

From patent US20240351986A1, “UREA COMPOUND CONTAINING 2-HETEROAROMATIC RING SUBSTITUTION, PREPARATION METHOD THEREFOR AND USE THEREOF” (SHANGHAI INSTITUTE OF MATERIA MEDICA, CHINESE ACADEMY OF …, priority 2021, published 2024) come the findings set out here.

T1 sequence (P50750 whole entry): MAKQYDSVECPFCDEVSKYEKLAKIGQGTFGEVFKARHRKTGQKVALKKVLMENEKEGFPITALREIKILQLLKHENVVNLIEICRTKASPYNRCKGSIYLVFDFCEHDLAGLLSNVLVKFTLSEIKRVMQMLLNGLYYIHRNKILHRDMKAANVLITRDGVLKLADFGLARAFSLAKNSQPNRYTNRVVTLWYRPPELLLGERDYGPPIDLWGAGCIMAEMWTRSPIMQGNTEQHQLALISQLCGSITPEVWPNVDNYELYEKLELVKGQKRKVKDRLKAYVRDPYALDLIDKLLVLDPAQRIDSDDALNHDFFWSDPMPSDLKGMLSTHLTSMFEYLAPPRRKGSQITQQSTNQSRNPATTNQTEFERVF
T1 sequence (O60563 whole entry partner): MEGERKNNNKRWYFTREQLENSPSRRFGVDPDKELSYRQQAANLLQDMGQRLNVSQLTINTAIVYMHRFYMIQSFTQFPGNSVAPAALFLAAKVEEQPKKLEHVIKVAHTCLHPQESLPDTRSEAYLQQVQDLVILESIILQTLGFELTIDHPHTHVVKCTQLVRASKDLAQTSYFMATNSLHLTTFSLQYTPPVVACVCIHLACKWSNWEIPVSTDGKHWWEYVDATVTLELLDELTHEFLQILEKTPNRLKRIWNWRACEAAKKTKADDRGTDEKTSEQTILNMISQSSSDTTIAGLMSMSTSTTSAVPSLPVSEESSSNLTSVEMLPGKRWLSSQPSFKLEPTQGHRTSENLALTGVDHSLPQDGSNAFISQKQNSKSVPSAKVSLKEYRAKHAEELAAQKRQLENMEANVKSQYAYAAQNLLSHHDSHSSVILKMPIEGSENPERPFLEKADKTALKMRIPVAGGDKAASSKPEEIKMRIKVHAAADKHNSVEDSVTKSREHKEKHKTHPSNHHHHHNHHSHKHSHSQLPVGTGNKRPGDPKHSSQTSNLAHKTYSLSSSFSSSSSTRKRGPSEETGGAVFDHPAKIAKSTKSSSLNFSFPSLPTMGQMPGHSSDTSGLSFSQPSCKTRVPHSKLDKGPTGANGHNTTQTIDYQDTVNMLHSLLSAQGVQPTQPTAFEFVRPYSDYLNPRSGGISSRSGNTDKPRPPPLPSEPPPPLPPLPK

With `COc1cc(F)ccc1-c1cc(NC(=O)NC2CCC(NC3CC3)CC2)ncc1Cl` (centres unmarked) [Example 24, 1-(5-chloro-4-(4-fluoro-2-methoxyphenyl)pyridin-2-yl)-3-((1r,4r)-4-(cyclopropylamino)cyclohexyl)urea], the inhibition at 0.1 µM was determined as 73.1%. In addition, the inhibition at 0.01 µM (compound 10 nM) was found to be 37.8%.

With `COc1cc(F)ccc1-c1cc(NC(=O)NC2CCC(NC3CCOC3)CC2)ncc1Cl` (centres unmarked) [Example 25, 1-(5-chloro-4-(4-fluoro-2-methoxyphenyl)pyridin-2-yl)-3-((1r,4r)-4-((tetrahydrofuran-3-yl)amino)cyclohexyl)urea], the inhibition at 0.1 µM worked out at 61.2%. The inhibition at 0.01 µM (compound 10 nM) was found to be 28.7%.

For `COc1cc(F)ccc1-c1cc(NC(=O)NC2CCC(NCCC(F)(F)F)CC2)ncc1Cl` (centres unmarked) [Example 26, 1-(5-chloro-4-(4-fluoro-2-methoxyphenyl)pyridin-2-yl)-3-((1r,4r)-4-((3,3,3-trifluoropropyl)amino)cyclohexyl)urea], the inhibition at 0.1 µM turned out to be 82.5%. Under “compound 10 nM”, the inhibition at 0.01 µM is 39.3%.

Regarding `COc1cc(F)ccc1-c1cc(NC(=O)NC2CCC(NCCN(C)C)CC2)ncc1Cl` (centres unmarked) [Example 27, 1-(5-chloro-4-(4-fluoro-2-methoxyphenyl)pyridin-2-yl)-3-((1r,4r)-4-((2-(dimethylamino)ethyl)amino)cyclohexyl)urea], the inhibition at 0.1 µM came to 78.4%. For the same compound, the inhibition at 0.01 µM (compound 10 nM) came to 44.2%.

For `COc1cc(F)ccc1-c1cc(NC(=O)NC2CCC(NC(=O)CN(C)C)CC2)ncc1Cl` (centres unmarked) [Example 28, N-((1r,4r)-4-(3-(5-chloro-4-(4-fluoro-2-methoxyphenyl)pyridin-2-yl)ureido)cyclohexyl)-2-(dimethylamino)acetamide], the inhibition at 0.1 µM stood at 84.3%. The inhibition at 0.01 µM (compound 10 nM) was 29.5%.

`COCCNC1CCC(NC(=O)Nc2cc(-c3ccc(F)cc3OC)c(C)cn2)CC1` (centres unmarked) [Example 29, 1-(4-(4-fluoro-2-methoxyphenyl)-5-methylpyridin-2-yl)-3-((1r,4r)-4-((2-methoxyethyl)amino)cyclohexyl) urea]: the inhibition at 0.1 µM came to 57%. For the same compound, the inhibition at 0.01 µM (compound 10 nM) is 19.4%.

On to `COc1cc(F)ccc1-c1cc(NC(=O)NC2CCC(NC(C)=O)CC2)ncc1F` (centres unmarked) [Example 30, N-((1r,4r)-4-(3-(5-fluoro-4-(4-fluoro-2-methoxyphenyl)pyridin-2-yl)ureido)cyclohexyl)acetamide], for which the inhibition at 0.1 µM was found to be 55.3%. For the same compound, where the note is “compound 10 nM”, the inhibition at 0.01 µM was determined as 23.1%.

In the case of `COc1cc(F)ccc1-c1cc(NC(=O)NC2CCC(NC(C)=O)CC2)ncc1C` (centres unmarked) [Example 31, N-((1r,4r)-4-(3-(5-methyl-4-(4-fluoro-2-methoxyphenyl)pyridin-2-yl)ureido)cyclohexyl)acetamide], the inhibition at 0.1 µM came to 51.3%. Also, the inhibition at 0.01 µM (compound 10 nM) was determined as 20.7%.

As for `COc1cc(F)ccc1-c1cc(NC(=O)NC2CCC(NC(C)=O)CC2)ncc1C#N` (centres unmarked) [Example 32, N-((1r,4r)-4-(3-(5-cyano-4-(4-fluoro-2-methoxyphenyl)pyridin-2-yl)ureido)cyclohexyl)acetamide], the inhibition at 0.1 µM worked out at 59.8%. Besides, the inhibition at 0.01 µM (compound 10 nM) amounted to 18.1%.

Regarding `COc1cc(F)ccc1-c1ccnc(NC(=O)Nc2ccc(F)nc2)c1` [Example 33, 1-(4-(4-fluoro-2-methoxyphenyl)pyridin-2-yl)-3(6-fluoropyridin-3-yl)urea], the inhibition at 0.1 µM was found to be 81%. For the same compound, the inhibition at 0.01 µM (compound 10 nM) was found to be 11.9%.

In the case of `COCCNCCCNC(=O)Nc1cc(-c2ccc(F)cc2OC)ccn1` [Example 34, 1-(4-(4-fluoro-2-methoxyphenyl)pyridin-2-yl)-3-(3-((2-methoxyethyl)amino)propyl)urea], the inhibition at 0.1 µM was found to be 54%. Moreover, the inhibition at 0.01 µM (compound 10 nM) turned out to be 7%.

For the compound `COc1cc(F)ccc1-c1ccnc(NC(=O)NC2CC(N)C2)c1` (centres unmarked) [Example 35, 1-((1r,3r)-3-aminocyclobutyl)-3-(4-(4-fluoro-2-methoxyphenyl)pyridin-2-yl)urea], the inhibition at 0.1 µM worked out at 62.7%. The inhibition at 0.01 µM (compound 10 nM) came to 30%.

As to `COc1cc(F)ccc1-c1ccnc(NC(=O)NC2CC(O)C2)c1` (centres unmarked) [Example 36, 1-(4-(4-fluoro-2-methoxyphenyl)pyridin-2-yl)-3((1r,3r)-3-hydroxycyclobutyl)urea], the inhibition at 0.1 µM turned out to be 62.8%. Also, where the note is “compound 10 nM”, the inhibition at 0.01 µM was determined as 16.5%.

In the case of `COc1cc(F)ccc1-c1ccnc(NC(=O)NC2CCCNCC2)c1` (centres unmarked) [Example 37, 1-(azepan-4-yl)-3-(4-(4-fluoro-2-methoxyphenyl)pyridin-2-yl)urea], the inhibition at 0.1 µM stood at 60%. In addition, for the setting “compound 10 nM”, the inhibition at 0.01 µM was 10%.

In the case of `COc1cc(F)ccc1-c1ccnc(NC(=S)NC2CCC(N)CC2)c1` (centres unmarked) [Example 38, 1-((1r,4r)-4-aminocyclohexyl)-3-(4-(4-fluoro-2-methoxyphenyl)pyridin-2-yl)thiourea], the inhibition at 0.1 µM is 27%. Further, the inhibition at 0.01 µM (compound 10 nM) turned out to be 51%.

Turning to `COc1cc(F)ccc1-c1cc(NC(=O)NC2CCC(NC(=O)OC(C)(C)C)CC2)ncn1` (centres unmarked) [Example 39, tert-butyl ((1r,4r)-4-(3-(6-(4-fluoro-2-methoxyphenyl)pyrimidin-4-yl)ureido)cyclohexyl)carbamate], the inhibition at 0.1 µM is 55%. Also, under “compound 10 nM”, the inhibition at 0.01 µM worked out at 28%.

Turning to `COc1cc(F)ccc1-c1cc(NC(=O)NC2CCC(NC(C)=O)CC2)ncn1` (centres unmarked) [Example 40, N-((1r,4r)-4-(3-(6-(4-fluoro-2-methoxyphenyl)pyrimidin-4-yl)ureido)cyclohexyl)acetamide], the inhibition at 0.1 µM stood at 59.5%. Where the note is “compound 10 nM”, the inhibition at 0.01 µM came to 25.3%.

With `COc1cc(F)ccc1-c1ccnc(NC(=O)NC2CCC(NC(C)=O)CC2)n1` (centres unmarked) [Example 41, N-((1r,4r)-4-(3-(4-(4-fluoro-2-methoxyphenyl)pyrimidin-2-yl)ureido)cyclohexyl)acetamide], the inhibition at 0.1 µM amounted to 70.2%. For the setting “compound 10 nM”, the inhibition at 0.01 µM came to 38.1%.

Regarding `Cc1c(-c2cc(NC(=O)NC3CCC(N)CC3)ncc2Cl)cnn1C` (centres unmarked) [Example 42, 1-((1r,4r)-4-aminocyclohexyl)-3-(5-chloro-4-(1,5-dimethyl-1H-pyrazol-4-yl)pyridin-2-yl)urea], the inhibition at 0.1 µM turned out to be 75%. Also, where the note is “compound 10 nM”, the inhibition at 0.01 µM came to 44%.

With `CC(=O)NC1CCC(NC(=O)Nc2cc(-c3cnn(C)c3C)c(Cl)cn2)CC1` (centres unmarked) [Example 43, N-((1r,4r)-4-(3-(5-chloro-4-(1,5-dimethyl-1H-pyrazol-4-yl)pyridin-2-yl)ureido)cyclohexyl)acetamide], the inhibition at 0.1 µM turned out to be 87.3%. Further, the inhibition at 0.01 µM (compound 10 nM) worked out at 49%.

As to `CC1(C)Cc2c(-c3cc(NC(=O)NC4CCC(N)CC4)ncc3Cl)cnn2C1` (centres unmarked) [Example 44, 1-((1r,4r)-4-aminocyclohexyl)-3-(5-chloro-4-(5,5-dimethyl-5,6-dihydro-4H-pyrrole[1,2-b]pyrazole-3-yl)pyridin-2-yl)urea], the inhibition at 0.1 µM turned out to be 96%. Moreover, the “Inhibition rate at different concentrations (%) 10 nM” value (compound 10 nM, 0.01 µM) worked out at 83.0%.

With `CC1(C)Cc2c(-c3cc(NC(=O)NC4CCC(O)CC4)ncc3Cl)cnn2C1` (centres unmarked) [Example 45, 1-(5-chloro-4-(5,5-dimethyl-5,6-dihydro-4H-pyrrolo[1,2-b]pyrazol-3-yl)pyridin-2-yl)-3-((1r,4r)-4-hydroxycyclohexyl)urea], the inhibition at 0.1 µM came out at 94.3%. Further, the inhibition at 0.01 µM (compound 10 nM) is 48.9%.
